As a reminder, the pEC50 is −log10 of the EC50, conventionally taken in molar units. Read a high pEC50 as a low EC50. A word on the pKi: it is the Ki on a negative log10 scale, so that one unit is a factor of ten.

pEC50, pKi: −log10 of the molar value. *1 amine or outer side, *2 acyl side, *3 side chain or, on linkers, in order; H or OH if unused. Where a SMILES comes first, the peptide text is derived from it. Side-chain parts run from the residue outwards. The star is where a group is joined. C18 diacid = O=C(O)CCCCCCCCCCCCCCCCC(=O)*; γGlu = O=C(O)[C@H](CCC(=O)[*:2])N[*:1]; Isovaleryl = CC(C)CC(=O)*; Ahx = NCCCCCC(=O)O

The results in this text go back to patent publication US12391737B2, “Soluble NPY2 receptor agonists” (Boehringer Ingelheim International GmbH, priority 2020, dated 2025).

A short description of one series: Solubility determination. As to conditions: for Sol6: pH 6; for Sol7: pH 7. In a few lines: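 Sample: TFA-salt peptide at 10 mg/ml target in 0.1 M Na diphosphate, pH 6.4 or 7.0, shaken 2 h RT, filtered, diluted to 1 mg/ml.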
Series [1] addresses T1, human NPY5 receptor (hY5R) (Homo sapiens, UniProt Q15761).
T1 sequence (Q15761 1-445): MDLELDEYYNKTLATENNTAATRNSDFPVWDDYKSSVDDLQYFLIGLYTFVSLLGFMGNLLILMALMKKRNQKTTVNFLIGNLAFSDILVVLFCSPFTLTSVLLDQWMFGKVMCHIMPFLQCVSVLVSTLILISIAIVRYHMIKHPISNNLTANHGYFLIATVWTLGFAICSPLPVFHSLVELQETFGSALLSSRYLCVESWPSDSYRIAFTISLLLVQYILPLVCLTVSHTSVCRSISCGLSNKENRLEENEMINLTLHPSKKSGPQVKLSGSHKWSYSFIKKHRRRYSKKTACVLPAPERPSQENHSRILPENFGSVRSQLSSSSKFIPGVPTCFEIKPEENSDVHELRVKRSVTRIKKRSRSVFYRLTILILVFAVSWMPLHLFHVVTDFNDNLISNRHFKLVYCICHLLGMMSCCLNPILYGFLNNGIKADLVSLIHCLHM
The series can be described thus: HTRF cAMP Gi assay, hY5R. On the technique in general: TR-FRET usually uses a lanthanide donor and a delayed reading to cut background.
Description: Briefly, the production of intracellular cAMP will generate a competition between unlabeled cAMP and exogenously added d2-cAMP for anti-cAMP antibodies conjugated to cryptate. CHO-K1 cells stably expressing the human NPY1, NPY2, NPY4 and NPY5 receptors were used with the cells brought to life from a frozen stock immediately before assay performance. 2000 cells per well were applied for all four NPY receptor subtype assays. A 384-well format was used applying a total volume of 20 μl using 5 μl cells, 2.5 μl peptide agonist, 2.5 μl forskolin and 5 μl of each of the fluorophores. […] Concentration-response evaluation of compounds was performed with 11 concentrations of agonist peptides (covering 3 decades). EC50 values were calculated by nonlinear regression using sigmoid concentration-response with variable slope.

Series [2] concerns the target T2, Human Neuropeptide Y2 Receptor (Homo sapiens, UniProt P49146).
T2 construct: purchased CHEMICON HTS066M
T2 sequence (P49146 1-381): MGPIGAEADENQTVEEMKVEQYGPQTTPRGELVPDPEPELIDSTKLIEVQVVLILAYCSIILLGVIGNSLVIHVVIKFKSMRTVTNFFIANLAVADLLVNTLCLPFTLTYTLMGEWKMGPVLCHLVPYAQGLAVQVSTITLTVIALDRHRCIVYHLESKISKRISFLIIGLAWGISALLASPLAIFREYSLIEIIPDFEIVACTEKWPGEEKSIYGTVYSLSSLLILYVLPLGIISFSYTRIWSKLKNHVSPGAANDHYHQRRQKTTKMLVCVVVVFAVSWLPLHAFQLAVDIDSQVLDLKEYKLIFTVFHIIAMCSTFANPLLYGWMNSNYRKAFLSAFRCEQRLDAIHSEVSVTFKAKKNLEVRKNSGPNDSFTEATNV
Description: Radioligand binding competition assay (RLB). Conditions: Table 3, 125I-PYY(1-36) competition; read-out: Ki. In a few lines:
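Filtration binding assay on human Y2 receptor membrane preparation, 0.5 μg protein per well, in 50 mM HEPES pH 7.4 containing 5 mM MgCl2, 1 mM CaCl2 and 0.2% ovalbumin. Plates shake 2 h at room temperature before harvest and scintillation counting.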

For the compound `CC(C)CC(=O)N[C@@H](C)C(=O)N1CCC[C@H]1C(=O)N[C@@H](C)C(=O)N[C@@H](CCCCNC(=O)CCCCCNC(=O)CC[C@H](NC(=O)CCCCCCCCCCCCCCCCC(=O)O)C(=O)O)C(=O)N1CCC[C@H]1C(=O)N[C@@H](CCC(=O)O)C(=O)N[C@@H](CCC(=O)O)C(=O)N[C@@H](CC(=O)O)C(=O)N[C@@H](C)C(=O)N[C@@H](CO)C(=O)N1CCC[C@H]1C(=O)N[C@@H](CCC(=O)O)C(=O)N[C@@H](CCC(=O)O)C(=O)N[C@@H](CC(C)C)C(=O)N[C@@H](CCC(N)=O)C(=O)N[C@@H](CCCNC(=N)N)C(=O)N[C@@H](Cc1ccc(O)cc1)C(=O)N[C@@H](Cc1ccc(O)cc1)C(=O)N[C@H](C(=O)N[C@@H](CO)C(=O)N[C@@H](CC(C)C)C(=O)N[C@@H](CCCNC(=N)N)C(=O)N[C@@H](Cc1c[nH]cn1)C(=O)N[C@@H](Cc1ccc(O)cc1)C(=O)N[C@@H](Cc1ccc(O)cc1)C(=O)N[C@@H](CC(N)=O)C(=O)N[C@@H](Cc1c[nH]c2ccccc12)C(=O)N[C@@H](CC(C)C)C(=O)N[C@H](C(=O)N[C@@H](CCCNC(=N)N)C(=O)N[C@@H](CCC(N)=O)C(=O)N[C@@H](CCCNC(=N)N)C(=O)N[C@@H](Cc1ccc(O)cc1)C(N)=O)[C@@H](C)O)C(C)C` [Compound 145, N{alpha-4}-(3-methylbutanoyl)-N{epsilon-7}-(6-[(4S)-4-carboxy-4-(17-carboxyheptadecanamido)butanamido]hexanoyl)-[4A,6A,7K,9E,18Q,22V,28Y,30W,31L]-hPYY(4-36)], in “Solubility determination”, the “Sol6” value turned out to be 7.2 mg/mL and the “Sol7” value came out at 9.0 mg/mL. The negative logarithm of the EC50 (pEC50) in series [1] is < 5.30. In addition, the pKi in series [2] is 8.28.
Taken in the same sequence, the figures for `CC[C@H](C)[C@H](NC(=O)[C@H](CCC(=O)O)NC(=O)[C@H](CCC(=O)O)NC(=O)[C@@H]1CCCN1C(=O)[C@H](CO)NC(=O)[C@H](C)NC(=O)[C@H](CC(=O)O)NC(=O)[C@H](CCC(=O)O)NC(=O)[C@@H]1CCCN1C(=O)[C@@H]1CCCN1C(=O)[C@H](CCCCNC(=O)CCCCCNC(=O)CC[C@H](NC(=O)CCCCCCCCCCCCCCCCC(=O)O)C(=O)O)NC(=O)[C@H](CCC(=O)O)NC(=O)[C@@H]1CCCN1C(=O)[C@H](C)NC(=O)CC(C)C)C(=O)N[C@@H](CCC(N)=O)C(=O)N[C@@H](CCCNC(=N)N)C(=O)N[C@@H](Cc1ccc(O)cc1)C(=O)N[C@@H](Cc1ccc(O)cc1)C(=O)N[C@H](C(=O)N[C@@H](CO)C(=O)N[C@@H](CC(C)C)C(=O)N[C@@H](CCCNC(=N)N)C(=O)N[C@@H](Cc1c[nH]cn1)C(=O)N[C@@H](Cc1ccc(O)cc1)C(=O)N[C@@H](Cc1ccc(O)cc1)C(=O)N[C@@H](CC(N)=O)C(=O)N[C@@H](Cc1c[nH]c2ccccc12)C(=O)N[C@@H](CC(C)C)C(=O)N[C@H](C(=O)N[C@@H](CCCNC(=N)N)C(=O)N[C@@H](CCC(N)=O)C(=O)N[C@@H](CCCNC(=N)N)C(=O)N[C@@H](Cc1ccc(O)cc1)C(N)=O)[C@@H](C)O)C(C)C` [Compound 172, N{alpha-4}-(3-methylbutanoyl)-N{epsilon-7}-(6-[(4S)-4-carboxy-4-(17-carboxyheptadecanamido)butanamido]hexanoyl)-[4A,7K,9P,17I,18Q,22V,28Y,30W,31L]-hPYY(4-36)] were 10.0 mg/mL, >10.0 mg/mL, < 5.30 and 9.09.
Take `CC(C)CC(=O)N[C@@H](C)C(=O)N1CCC[C@H]1C(=O)N[C@@H](CCC(=O)O)C(=O)N[C@@H](CCCCNC(=O)CCCCCNC(=O)CC[C@H](NC(=O)CCCCCCCCCCCCCCCCC(=O)O)C(=O)O)C(=O)N1CCC[C@H]1C(=O)N[C@@H](CCC(=O)O)C(=O)N[C@@H](CCC(=O)O)C(=O)N[C@@H](CC(=O)O)C(=O)N[C@@H](C)C(=O)N[C@@H](CCC(=O)O)C(=O)N1CCC[C@H]1C(=O)N[C@@H](CCC(=O)O)C(=O)N[C@@H](CCC(=O)O)C(=O)N[C@@H](CC(C)C)C(=O)N[C@@H](CCC(N)=O)C(=O)N[C@@H](CCCNC(=N)N)C(=O)N[C@@H](Cc1ccc(O)cc1)C(=O)N[C@@H](Cc1ccc(O)cc1)C(=O)N[C@H](C(=O)N[C@@H](CO)C(=O)N[C@@H](CC(C)C)C(=O)N[C@@H](CCCNC(=N)N)C(=O)N[C@@H](Cc1c[nH]cn1)C(=O)N[C@@H](Cc1ccc(O)cc1)C(=O)N[C@@H](Cc1ccc(O)cc1)C(=O)N[C@@H](Cc1c[nH]cn1)C(=O)N[C@@H](Cc1c[nH]c2ccccc12)C(=O)N[C@@H](CC(C)C)C(=O)N[C@H](C(=O)N[C@@H](CCCNC(=N)N)C(=O)N[C@@H](CCC(N)=O)C(=O)N[C@@H](CCCNC(=N)N)C(=O)N[C@@H](Cc1ccc(O)cc1)C(N)=O)[C@@H](C)O)[C@@H](C)O` [Compound 91, N{alpha-4}-(3-methylbutanoyl)-N{epsilon-7}-(6-[(4S)-4-carboxy-4-(17-carboxyheptadecanamido)butanamido]hexanoyl)-[4A,7K,9E,13E,18Q,22T,28Y,29H,30W,31L]-hPYY(4-36)] (Isovaleryl-APEK([Ahx-γGlu-C18 diacid])PEEDAEPEELQRYYTSLRHYYHWLTRQRY-NH2): in “Solubility determination”, the “Sol6” value was 8.9 mg/mL and the “Sol7” value is 9.4 mg/mL. In addition, the pEC50 in series [1] is ≤ 5.30. Besides, in series [2], the pKi was 8.33.
Taken in the same sequence, the figures for `CC[C@H](C)[C@H](NC(=O)[C@H](CCC(=O)O)NC(=O)[C@H](CCC(=O)O)NC(=O)[C@@H]1CCCN1C(=O)[C@H](CO)NC(=O)[C@H](C)NC(=O)[C@H](CC(=O)O)NC(=O)[C@H](C)NC(=O)[C@H](CCC(=O)O)NC(=O)[C@@H]1CCCN1C(=O)[C@H](CCCCNC(=O)CCCCCNC(=O)CC[C@H](NC(=O)CCCCCCCCCCCCCCCCC(=O)O)C(=O)O)NC(=O)[C@H](CCC(=O)O)NC(=O)[C@@H]1CCCN1C(=O)[C@H](C)NC(=O)CC(C)C)C(=O)N[C@@H](CCC(N)=O)C(=O)N[C@@H](CCCNC(=N)N)C(=O)N[C@@H](Cc1ccc(O)cc1)C(=O)N[C@@H](Cc1ccc(O)cc1)C(=O)N[C@H](C(=O)N[C@@H](CO)C(=O)N[C@@H](CC(C)C)C(=O)N[C@@H](CCCNC(=N)N)C(=O)N[C@@H](Cc1c[nH]cn1)C(=O)N[C@@H](Cc1ccc(O)cc1)C(=O)N[C@@H](Cc1ccc(O)cc1)C(=O)N[C@@H](CC(N)=O)C(=O)N[C@@H](Cc1c[nH]c2ccccc12)C(=O)N[C@@H](CC(C)C)C(=O)N[C@H](C(=O)N[C@@H](CCCNC(=N)N)C(=O)N[C@@H](CCC(N)=O)C(=O)N[C@@H](CCCNC(=N)N)C(=O)N[C@@H](Cc1ccc(O)cc1)C(N)=O)[C@@H](C)O)C(C)C` [Compound 140, N{alpha-4}-(3-methylbutanoyl)-N{epsilon-7}-(6-[(4S)-4-carboxy-4-(17-carboxyheptadecanamido)butanamido]hexanoyl)-[4A,7K,9E,10A,17I,18Q,22V,28Y,30W,31L]-hPYY(4-36)] were 9.9 mg/mL, 9.3 mg/mL, < 5.30 and 8.85.
Taken in the same sequence, the figures for `CC[C@H](C)[C@H](NC(=O)[C@H](CCC(=O)O)NC(=O)[C@H](CCC(=O)O)NC(=O)[C@@H]1CCCN1C(=O)[C@H](CO)NC(=O)[C@H](C)NC(=O)[C@H](CC(=O)O)NC(=O)[C@H](CCC(=O)O)NC(=O)[C@H](CCC(=O)O)NC(=O)[C@@H]1CCCN1C(=O)[C@H](CCCCNC(=O)CCCCCNC(=O)CC[C@H](NC(=O)CCCCCCCCCCCCCCCCC(=O)O)C(=O)O)NC(=O)[C@H](CCC(=O)O)NC(=O)[C@@H]1CCCN1C(=O)[C@H](C)NC(=O)CC(C)C)C(=O)N[C@@H](CCC(N)=O)C(=O)N[C@@H](CCCNC(=N)N)C(=O)N[C@@H](Cc1ccc(O)cc1)C(=O)N[C@@H](Cc1ccc(O)cc1)C(=O)N[C@H](C(=O)N[C@@H](CCC(=O)O)C(=O)N[C@@H](CC(C)C)C(=O)N[C@@H](CCCNC(=N)N)C(=O)N[C@@H](Cc1c[nH]cn1)C(=O)N[C@@H](Cc1ccc(O)cc1)C(=O)N[C@@H](Cc1ccc(O)cc1)C(=O)N[C@@H](CC(N)=O)C(=O)N[C@@H](Cc1c[nH]c2ccccc12)C(=O)N[C@@H](CC(C)C)C(=O)N[C@H](C(=O)N[C@@H](CCCNC(=N)N)C(=O)N[C@@H](CCC(N)=O)C(=O)N[C@@H](CCCNC(=N)N)C(=O)N[C@@H](Cc1ccc(O)cc1)C(N)=O)[C@@H](C)O)C(C)C` [Compound 52, N{alpha-4}-(3-methylbutanoyl)-N{epsilon-7}-(6-[(4S)-4-carboxy-4-(17-carboxyheptadecanamido)butanamido]hexanoyl)-[4A,7K,9E,17I,18Q,22V,23E,28Y,30W,31L]-hPYY(4-36)] were 9.5 mg/mL, 9.5 mg/mL, < 5.30 and 8.62.
